Data as given in patent US11414424B2, “Cardiac sarcomere inhibitors” (Cytokinetics, Inc., priority 2018, dated 2022).

System: bovine cardiac myofibrils
Assay: Myofibril assay: PK/LDH-coupled steady-state ATPase activity of skinned bovine cardiac myofibrils
Type: biochemical
Conditions: Ca2+ activating to 75% of maximal rate
How it was run: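 Steady-state ATPase of detergent-skinned bovine left-ventricular myofibrils (1 mg/mL), PK/LDH-coupled NADH read at 340 nm, in PIPES/MgCl2 buffer pH 6.8 with 50 μM ATP, 0.6 mM EGTA and CaCl2 set for 50% or 75% activation. Inhibition of activity measured.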

Row | Structure (SMILES) | CDMF75 IC15 [µM]
1 | Cc1csc(N2CC3(C2)C(=O)N(C(C)C)CC(=O)N3Cc2ccc(Cl)cc2)n1 [Compound 43, 5-(4-chlorobenzyl)-8-isopropyl-2-(4-methyl-thiazol-2-yl)-2,5,8-triazaspiro[3.5]nonane-6,9-dione] | 3.3
2 | COC(=O)N1CC[C@]2(C1)C(=O)N(c1ccc(C#N)cc1F)CC(=O)N2Cc1ccc(Cl)cc1 [Compound 211, methyl (S)-6-(4-chlorobenzyl)-9-(4-cyano-2-fluorophenyl)-7,10-dioxo-2,6,9-triazaspiro-[4.5]decane-2-carboxylate] | 0.4
3 | CC(C)N1CC(=O)N(Cc2ccc(Cl)cc2)C(c2ccc(Cl)cc2)C1=O (single isomer, unassigned) [Compound 288B, 3-(4-chlorophenyl)-4-[(4-chlorophenyl)methyl]-1-(propan-2-yl)piperazine-2,5-dione] | >39
4 | CC(C)N1CC(=O)N(Cc2ccc(Cl)cc2)C2(CN(c3nccs3)C2)C1=O [Compound 22, 5-(4-chlorobenzyl)-8-isopropyl-2-(thiazol-2-yl)-2,5,8-triazaspiro[3.5]-nonane-6,9-dione] | 4.1
5 | CC(C)N1CC(=O)N(Cc2ccc(Cl)cc2)C2(CN(c3cnccn3)C2)C1=O [Compound 12, 5-(4-chlorobenzyl)-8-isopropyl-2-(pyrazin-2-yl)-2,5,8-triazaspiro-[3.5]nonane-6,9-dione] | 6.6
6 | CC(C)N1CC(=O)N(Cc2ccc(Cl)cc2)C2(CCN(C(N)=O)C2)C1=O (single isomer, unassigned) [Compound 367A, 6-[(4-chlorophenyl)methyl]-7,10-dioxo-9-(propan-2-yl)-2,6,9-triazaspiro[4.5]decane-2-carboxamide] | 8.8
7 | CC(C)N1CC(=O)N(Cc2ccc(Cl)cc2)C2(CN(c3ccnc(C(F)F)c3)C2)C1=O [Compound 29, 5-(4-chlorobenzyl)-2-(2-(difluoromethyl)pyridin-4-yl)-8-isopropyl-2,5,8-triazaspiro[3.5]nonane-6,9-dione] | 5.6
8 | CC(C)N1CC(=O)N(Cc2ccc(C(F)(F)F)cc2)C2(CN(C(N)=O)C2)C1=O [Compound 68, 8-isopropyl-6,9-dioxo-5-(4-(trifluoromethyl)benzyl)-2,5,8-triazaspiro[3.5]-nonane-2-carboxamide] | 9.2
9 | CC(C)N1CC(=O)N(Cc2ccc(Cl)c(Cl)c2)C2(CCN(c3ccc(C#N)cn3)C2)C1=O (centres unmarked) [Compound 90, 6-(6-(3,4-dichlorobenzyl)-9-isopropyl-7,10-dioxo-2,6,9-triazaspiro[4.5]-decan-2-yl)nicotinonitrile] | 1.7
10 | CNC(=O)N1CC2(C1)C(=O)N(c1ccc(C(=O)c3ccccc3)cc1)CC(=O)N2Cc1ccc(C(F)(F)F)cc1 [Compound 172, 8-(4-benzoylphenyl)-N-methyl-6,9-dioxo-5-(4-(trifluoromethyl)benzyl)-2,5,8-triazaspiro[3.5]-nonane-2-carboxamide] | 18.5
11 | CNC(=O)N1CC2(C1)C(=O)N(c1ccc(C#N)c(F)c1)CC(=O)N2Cc1ccc(C(F)(F)F)cc1 [Compound 162, 8-(4-cyano-3-fluorophenyl)-N-methyl-6,9-dioxo-5-(4-(trifluoromethyl)benzyl)-2,5,8-triazaspiro[3.5]-nonane-2-carboxamide] | 0.4
12 | CNC(=O)N1CC2(C1)C(=O)N(c1ccc(OC(F)F)cc1)CC(=O)N2Cc1ccc(C(F)(F)F)cc1 [Compound 159, 8-(4-(difluoromethoxy)-phenyl)-N-methyl-6,9-dioxo-5-(4-(trifluoro-methyl)benzyl)-2,5,8-triazaspiro[3.5]nonane-2-carboxamide] | 3.2
13 | CC(C)N1CC(=O)N(Cc2ccc(Cl)cc2)C(c2ccccc2Cl)C1=O (centres unmarked) [Compound 310, 4-(4-chlorobenzyl)-3-(2-chlorophenyl)-1-isopropylpiperazine-2,5-dione] | 13.1
14 | N#Cc1ccc(N2CC3(C2)C(=O)N(c2ccccc2)CC(=O)N3Cc2ccc(C(F)(F)F)cc2)nc1 [Compound 350, 6-(6,9-dioxo-8-phenyl-5-(4-(trifluoromethyl)benzyl)-2,5,8-triazaspiro[3.5]nonan-2-yl)nicotinonitrile] | 5.5
15 | CC(=O)N1CC2(C1)C(=O)N(c1ccc(C#N)cc1F)CC(=O)N2Cc1ccc(Cl)cc1 [Compound 175, 4-(2-acetyl-5-(4-chlorobenzyl)-6,9-dioxo-2,5,8-triazaspiro[3.5]nonan-8-yl)-3-fluorobenzonitrile] | 1.2
16 | N#Cc1ccc(N2CC3(C2)C(=O)N(C2CCCC2)CC(=O)N3Cc2ccc(C(F)(F)F)cc2)nc1 [Compound 58, 6-(8-cyclopentyl-6,9-dioxo-5-(4-(trifluoromethyl)benzyl)-2,5,8-triazaspiro[3.5]-nonan-2-yl)nicotinonitrile] | 4.1
17 | N#Cc1ccc(N2CC(=O)N(Cc3ccc(C(F)(F)F)cc3)[C@@H](C3CCC3)C2=O)c(F)c1 [Compound 284, (S)-4-(3-cyclobutyl-2,5-dioxo-4-(4-(trifluoromethyl)benzyl)piperazin-1-yl)-3-fluorobenzonitrile] | 0.5
18 | N#Cc1ccc(N2CC(=O)N(Cc3ccc(Cl)cc3)[C@]3(CCN(C=O)C3)C2=O)c(F)c1 [Compound 220, (S)-4-(6-(4-chlorobenzyl)-2-formyl-7,10-dioxo-2,6,9-triazaspiro[4.5]decan-9-yl)-3-fluorobenzonitrile] | 0.8
19 | CC(=O)N1CC2(C1)C(=O)N(C1CCC(C(F)F)CC1)CC(=O)N2Cc1ccc(C(F)(F)F)cc1 (centres unmarked) [Compound 324, 2-acetyl-8-(4-(difluoro-methyl)cyclohexyl)-5-(4-(trifluoromethyl)benzyl)-2,5,8-triazaspiro[3.5]-nonane-6,9-dione] | 11.5

Second part, the compound after the results:

Row | CDMF75 IC15 [µM] | Structure (SMILES)
20 | 4.3 | O=C1CN(c2ncc(Cl)cc2F)C(=O)C2(COC2)N1Cc1ccc(C(F)F)cc1 [Compound 768, 8-(5-chloro-3-fluoropyridin-2-yl)-5-(4-(difluoromethyl)-benzyl)-2-oxa-5,8-diazaspiro[3.5]nonane-6,9-dione]
21 | 6.8 | CC(=O)N1CC(C2C(=O)N(c3ncc(Cl)cc3F)CC(=O)N2Cc2ccc(Cl)cc2)C1 (centres unmarked) [Compound 644, 3-(1-acetylazetidin-3-yl)-1-(5-chloro-3-fluoropyridin-2-yl)-4-(4-chlorobenzyl)-piperazine-2,5-dione]
22 | 9.7 | CC(=O)NCC1(C)C(=O)N(c2ncc(Cl)cc2F)CC(=O)N1Cc1ccc(C(F)(F)F)cc1 (single isomer, unassigned) [Compound 630A, N-((4-(5-chloro-3-fluoropyridin-2-yl)-2-methyl-3,6-dioxo-1-(4-(trifluoromethyl)benzyl)piperazin-2-yl)methyl)acetamide]
23 | 7.1 | C=Cc1cnc(N2CC(=O)N(Cc3ccc(Cl)cc3)C(C3COC3)C2=O)c(F)c1 (centres unmarked) [Compound 723, 4-(4-chlorobenzyl)-1-(3-fluoro-5-vinylpyridin-2-yl)-3-(oxetan-3-yl)piperazine-2,5-dione]
24 | 0.3 | Cc1cc(Cl)cnc1N1CC(=O)N(Cc2ccc(Cl)cc2)C2(CN(c3ccccn3)C2)C1=O [Compound 882, 8-(5-chloro-3-methyl-pyridin-2-yl)-5-(4-chloro-benzyl)-2-(pyridin-2-yl)-2,5,8-triazaspiro[3.5]-nonane-6,9-dione]
25 | >39 | CC(=O)NCC1(C)C(=O)N(c2ncc(Cl)cc2F)CC(=O)N1Cc1ccc(C(F)(F)F)cc1 (single isomer, unassigned) [Compound 630B, N-((4-(5-chloro-3-fluoropyridin-2-yl)-2-methyl-3,6-dioxo-1-(4-(trifluoromethyl)benzyl)piperazin-2-yl)methyl)acetamide]
26 | 1.37 | O=CN1CC2(C1)CC1(C2)C(=O)N(c2ncc(Cl)cc2F)CC(=O)N1Cc1ccc(F)cc1 [Compound 828, 10-(5-chloro-3-fluoro-pyridin-2-yl)-7-(4-fluoro-benzyl)-8,11-dioxo-2,7,10-triazadispiro[3.1.56.14]-dodecane-2-carbaldehyde]
27 | 2.1 | NC(=O)C12CC([C@H]3C(=O)N(c4ncc(Cl)cc4F)CC(=O)N3Cc3ccc(C(F)F)cc3)(C1)C2 [Compound 821, (S)-3-(4-(5-chloro-3-fluoropyridin-2-yl)-3,6-dioxo-1-(4-(difluoro-methyl)benzyl)piperazin-2-yl)bicyclo[1.1.1]pentane-1-carboxamide]
28 | 0.7 | CC(=O)N1CC2(C1)CC1(C2)C(=O)N(c2ncc(Cl)cc2F)CC(=O)N1Cc1ccc(C(F)(F)F)cc1 [Compound 825, 2-acetyl-10-(5-chloro-3-fluoropyridin-2-yl)-7-(4-(trifluoromethyl)benzyl)-2,7,10-triazadispiro-[3.1.56.14]dodecane-8,11-dione]
29 | 6.8 | O=C1C(C23CC(CO)(C2)C3)N(Cc2ccc(C(F)(F)F)cc2)C(=O)CN1c1ncc(Cl)cc1F (centres unmarked) [Compound 784, 1-(5-chloro-3-fluoropyridin-2-yl)-3-(3-(hydroxymethyl)bicyclo[1.1.1]pentan-1-yl)-4-(4-(trifluoromethyl)benzyl)piperazine-2,5-dione]
30 | 5.3 | Cc1cc(Cl)cnc1N1CC(=O)N(Cc2ccc(Cl)cc2)C(C2COC2)C1=O (centres unmarked) [Compound 654, 1-(5-chloro-3-methylpyridin-2-yl)-4-(4-chlorobenzyl)-3-(oxetan-3-yl)piperazine-2,5-dione]
31 | 2.0 | N#Cc1cnc(N2CC(=O)N(Cc3ccc(C(F)(F)F)cc3)C(C3COC3)C2=O)c(F)c1 (centres unmarked) [Compound 736, 5-fluoro-6-(3-(oxetan-3-yl)-2,5-dioxo-4-(4-(trifluoromethyl)benzyl)-piperazin-1-yl)nicotinonitrile]
32 | 0.3 | CNC(=O)c1ccccc1N1CC2(C1)C(=O)N(c1ccc(C#N)cc1F)CC(=O)N2Cc1ccc(C(F)(F)F)cc1 [Compound 537, 2-(8-(4-cyano-2-fluorophenyl)-6,9-dioxo-5-(4-(trifluoromethyl)benzyl)-2,5,8-triazaspiro[3.5]nonan-2-yl)-N-methylbenzamide]
